In patent US5744471A, “Pyridazion quinoline compounds” (Zeneca Limited, priority 1993, dated 1998):
Counter-ions that a name gives are not always drawn. Like-named read-outs stand apart in the source and are kept apart here.

Assays:
[1] = tested on: neuronal damage in the hippocampus; test: gerbil ischemic model, bilateral carotid occlusion (Test B); format: in vivo, Mongolian gerbils; settings: 10 mg/Kg ip, 45 minutes before and 5 minutes after occlusion
Procedure: When testing in vivo using the gerbil ischemic model, adult female Mongolian gerbils (50-70 g) are anesthetized with 2 to 3% halothane. The bilateral common carotid arteries at the neck are exposed and occluded with microaneurysm clips. After 10 min (unless specified), the clips are removed and the blood flow through the carotid arteries is restored and the skin is sutured. Test compounds are administered intraperitoneally both pre- and post-occlusion, for example 45 minutes before and 5 minutes after occlusion of the carotid arteries. Sham-operated animals are treated in the same manner except that the arteries are not clamped. Gross behavioral observations along with motor activity are recorded for 2 hr on the first (24 hr) day following the occlusion. After 4 days, subjects are sacrificed (decapitation), brains are removed, fixed, sectioned and stained with hematoxylin/eosin and cresyl violet.
The brain sections are rated for neuronal damage in the hippocampus using the following rating scale:
1=slight damage (up to 25%)--restricted to CAI/subiculum border
2=moderate damage (up to 50%)--obvious damage, restricted to less than half of CA1 field […]
Sections (7 micron) are evaluated from each brain. […] The average brain damage rating score for each group is recorded, and the damage scores of the drug treated group are compared to the vehicle-treated group using Wilcoxon-Rank Sum test.

[2] = biological target: T1, glycine receptor of the NMDA receptor complex (Rattus norvegicus, UniProt P35439); test: [3H]-glycine binding assay (Test A; in-vitro glycine receptor assay); design: species or system rat (male Sprague-Dawley)
T1 construct: Freshly dissected cortices and hippocampi are homogenized in 0.32 M sucrose; from tissue; host or cells: rat cerebral cortex and hippocampus, synaptic membranes (male Sprague-Dawley)
Procedure: The actions of compounds according to the invention as antagonists at the giycine receptor of the NMDA receptor complex can be shown by one or more standard tests such as the [^3 H]-glycine binding assay (Test A) and by tests in vivo such as ischemia induced by carotid occlusion in the gerbil model (Test B). In addition to these tests, compounds of the invention are assayed in the red nucleus test (Test C) and in the Rat Middle Cerebral Artery test (Test D). These tests confirm that compounds of the invention are NMDA receptor antagonists in vitro and in vivo.
In the [^3 H]-glycine binding assay, neuronal synaptic membranes are prepared from adult (about 250 g) male Sprague-Dawley rats. Freshly dissected cortices and hippocampi are homogenized in 0.32 M sucrose (110 mg/mL). Synaptosomes are isolated by centrifugation (1000 xg, 10 min), the supernatant is pelleted (20,000 xg, 20 min) and resuspended in double-distilled water. The suspension was centrifuged for 20 minutes at 8,000 xg. The resulting supernatant and buffy coat are washed twice (48,000 xg, 10 mins, resuspension in double-deionized water). The final pellet is quickly frozen (dry ice/ethanol bath) under double-deionized water and stored at -70° C.
On the day of the experiment, thawed synaptic membranes are homogenized with a Brinkmann Polytron (tm, Brinkmann Instruments, Westbury, N.Y.) tissue homogenizer in 50 millimolar tris(hydroxymethyl)aminomethane citrate, pH 7.1. The membranes are incubated with 0.04% Sufact-AMPS X100 (tm, Pierce, Rockford, Ill.) in buffer for 20 minutes at 37° C. and washed six times by centrifugation (48,000 xg, 10 min) and resuspended in buffer. The final pellet is homogenized at 200 mg wet weight/mL of the buffer for the binding assay.
For [^3 H]-glycine binding at the N-methyl-D-aspartate receptor, 20 nanomolar [^3 H]-glycine (40-60 Ci/mmol, New England Nuclear, Boston, Mass.) is incubated with the membranes suspended in 50 millimolar tris (hydroxymethyl)aminomethane citrate, pH 7.1 for 30 minutes at 4° C. Glycine, 1 millimolar, is used to define the nonspecific binding. Bound [^3 H]-glycine is isolated from free using a Brandel (Biomedical Research and Development Laboratories, Gaithersburg, Md.) cell harvester for vacuum filtration over glass fiber filters (Whatman GF/B from Brandel, Gaithersburg, Md.) presoaked in 0.025% polyethylenimine. The samples retained on the glass fiber filters are rinsed 3 times with a total of 2.5 mL ice cold buffer. Radioactivity is estimated by liquid scintillation counting. IC50 values are obtained from a least-squares regression of a logit-log transformation of the data. […] The other examples disclosed herein are glycine antagonists.

[3] = tested on: NMDA-induced excitatory response of red nucleus cells; test: Red Nucleus Test (Test C); format: in vivo; settings: Rattus norvegicus, iv, read-out: ID50 (NMDA-induced excitatory response of red nucleus cells)
Procedure: The purpose of this test is to determine the effects of intravenously administered glycine antagonists on the NMDA-induced excitatory response of red nucleus cells.
The procedure for the red nucleus test is as follows. Rats are anesthetized with chloral hydrate (400 mg/kg ip) and the femoral vein is catheterized for iv drug administration. Five-barrel micropipettes are stereotaxically positioned in the red nucleus. Typically, three to four of the five barrels are filled as follows: the recording barrel with 2M potassium citrate, the current balancing barrel with 4M NaCl, the drug barrel with 25 mM NMDA, and another drug barrel with 2.5 mM quisqualic acid (QA is only used in selectivity studies). NHDA is iontophoretically applied with an ejection current that is adjusted depending on the sensitivity of each individual red nucleus cell. The NMDA is cycled on and off (usually 30-60 sec. on and 60-120 sec. off) and the firing rate of the cell during each period is recorded. Once the baseline firing rate of the cell has been established, the test drug is administered iv. The effect of the drug on the NMDA-induced excitatory response of the red nucleus cell can be both qualitatively and quantitatively evaluated from the recordings and the raw data accumulated.

[4] = 20 nanomolar [3H]-glycine, rat synaptic membranes, pH 7.1, 4° C., read-out: IC50 in the [3H]-glycine binding assay
[5] = read-out: IC50 in the [3H]Gly test

O=c1c2ccc(Cl)cc2[nH]c2c(O)nn(-c3ccc(O)cc3)c(=O)c12 [Example 10, 7-Chloro-4-hydroxy-2-(4-hydroxyphenyl)-1,2,5,10-tetrahydropyridazino[4,5-b]quinoline-1,10-dione]
neuroprotection (relative to sham-operated control) [1]: over 80%
IC50 [2, 4]: 0.12 µM

CC(=O)OCCn1nc(O)c2c(=O)c3ccc(Cl)cc3[nH]c2c1=O [3-(2-Acetoxyethyl), 3-(2-Acetoxyethyl)7-chloro-4-hydroxy-1,2,5,10-tetrahydropyridazino[4,5-]quinoline-1,10-dione]
IC50 [2, 5]: > 100 µM

O=C(NCCn1nc(O)c2[nH]c3cc(Cl)ccc3c(=O)c2c1=O)c1ccccc1 [2-ethylbenzamidederivative]
glycine receptor antagonist activity ([2]; result in words): active as a glycine receptor antagonist

C/C(=C\C(N)C(=O)O)CP(=O)(O)O (stereo not shown) [CGP 37849]
ED50 [3]: 1.7 mg/kg

O=C1c2ccccc2C(=O)N1CCn1nc(O)c2[nH]c3cc(Cl)ccc3c(=O)c2c1=O [Example 4, 7-Chloro-4-hydroxy-2-(2-phthalimidoethyl)-1,2,5,10-tetrahydropyridazino[4,5-b]quinoline-1,10-dione]
neuroprotection (relative to sham-operated control) [1]: 35%

O=c1c2ccc(Cl)cc2[nH]c2c(=O)n(-c3ccc(O)cc3)nc(O)c12 [Example 9, 7-Chloro-1-hy droxy-3-(4-hydroxyphenyl)-3,4,5,10-tetrahydropyridazino[4,5-b]quinoline-4,10-dione]
IC50 [2, 5]: > 100 µM
activity in the in-vitro glycine receptor assay ([2]; result in words): inactive

CC(C)c1ccc(-n2nc(O)c3c(=O)c4ccc(Cl)cc4[nH]c3c2=O)cc1 [Example 20, 7-Chloro-1-hydroxy-3-(4-isopropylphenyl)-3,4,5,10-tetrahydropyridazino[4,5- ]-quinoline-4,10-dione]
activity in the in-vitro glycine receptor assay ([2]; result in words): inactive

O=c1c2ccc(Cl)cc2[nH]c2c(=O)n(-c3ccc(Cl)cc3)nc(O)c12 [Example 16, 7-Chloro-1-hydroxy-3-(4-chlorophenyl)-3,4,5,10-tetrahydropyridazino[4,5-b]quinoline-4,10-dione]
activity in the in-vitro glycine receptor assay ([2]; result in words): inactive

COc1ccc(-n2nc(O)c3c(=O)c4ccc(Cl)cc4[nH]c3c2=O)cc1 [Example 7, 7-Chloro-1-hydroxy-3-(4-methoxyphenyl)-3,4,5,10-tetrahydropyridazino[4,5-b]quinoline-4,10-dione]
IC50 [2, 5]: > 100 µM
activity in the in-vitro glycine receptor assay ([2]; result in words): inactive

O=c1c2ccc(Cl)cc2[nH]c2c(=O)n(CCO)nc(O)c12 [Example 1, 7-Chloro-1-hydroxy-3-(2-hydroxyethyl)-3,4,5,10-tetrahydropyridazino[4,5-b]quinoline-4,10-dione]
IC50 [2, 4]: 40 µM

Cc1ccc(-n2nc(O)c3c(=O)c4ccc(Cl)cc4[nH]c3c2=O)cc1 [Example 18, 7-Chloro-1-hydroxy-3-(4-methylphenyl)-3,4,5,10-tetrahydropyridazino[4,5-b]quinoline-4,10-dione]
activity in the in-vitro glycine receptor assay ([2]; result in words): inactive

O=c1c2ccc(Cl)cc2[nH]c2c(=O)n(-c3ccccc3)nc(O)c12 [Example 5, 7-Chloro-1-hydroxy-3-phenyl-3,4,5,10-tetrahydropyridazino[4,5-b]-quinoline-4,10-dione, choline salt]
activity in the in-vitro glycine receptor assay ([2]; result in words): inactive

NC1CCN(O)C1=O (stereo not shown) [HA-966]
ED50 ([3]; reference agents): 7.9 mg/kg
